The source of these data is US20240398764A1, “METHODS OF TREATING DISEASES ASSOCIATED WITH SENESCENT CELL ACCUMULATION” (University of Florida Research Foundation, Incorporated, priority 2021, published 2024).

Data set [1] relates to normal non-senescent WI-38 fibroblast cells (Non-SnCs). The data set can be described thus: Viability of non-senescent WI-38 fibroblast cells. It counts as cell-based. Particulars: 72 hr incubation; vs ABT263. From the text:
(§1) FIG. 2A depicts immunoblots showing degradation of Bcl-xl and Bcl-2 in non-senescent WI-38 fibroblast cells (Non-SnCs) treated with varying concentrations of 753b. 3-actin was used as a loading control. FIG. 2B depicts viability of Non-SnCs treated with varying concentrations of 753b or ABT263. FIG. 2C depicts immunoblots showing degradation of Bcl-xl and Bcl-2 in ionizing radiation-induced senescent WI-38 fibroblast cells (IR-SnCs) treated with varying concentrations of 753b. 3-actin was used as a loading control. FIG. 2D depicts viability of IR-SnCs treated with varying concentrations of 753b or ABT263. FIG. 2E depicts immunoblots showing degradation of Bcl-xl and Bcl-2 in human platelets treated with varying concentrations of 753b. FIG. 2F depicts viability of human platelets treated with varying concentrations of 753b or ABT263.
(§2) The potency of 753b in degrading Bcl-xl/2 was evaluated by immunoblots after the cells or platelets were treated with different concentrations of 753b for 16 h ([…]). 753b is more cytotoxic to IR-SnCs but less toxic to Non-SnCs and platelets. The viability of Non-SnCs, IR-SnCs and platelets was measured 72 hr (Non-SnCs and IR-SnCs) and 48 hr (platelets) after they were incubated with increasing concentrations of 753b or ABT263 compared to cells/platelets with vehicle.

In data set [2] the test system is human platelets. Put plainly: Viability of human platelets. The format is cell-based. Particulars: 48 hr incubation; vs ABT263.
Excerpt: as §1, §2

Data set [3] relates to IR-induced senescent human umbilical vein endothelial cells (IR-SnC HUVEC). The data set can be described thus: Viability of IR-SnC HUVEC. It counts as cell-based. Conditions: 72 hr incubation; vs ABT263. The procedure:
(§3) FIGS. 3A to 3B depicts viability of non-SnC human umbilical vein endothelial cells (HUVEC) and IR-induced SnC HUVEC treated with varying concentrations of ABT263 (FIG. 3A) or 753b (FIG. 3B). FIGS. 3C to 3D depict viability of non-SnC renal epithelial cells (REC), IR-induced SnC REC, and replicative senescent REC treated with varying concentrations of ABT263 (FIG. 3C) or 753b (FIG. 3D).
(§4) The viability of Non-SnC HUVEC, Non-SnC REC, IR-SnC HUVEC, IR-SnC REC, and Rep-SnC REC was measured 72 hr after they were incubated with increasing concentrations of 753b or ABT263 compared to cells/platelets with vehicle.

Data set [4] has as its system IR-induced senescent renal epithelial cells (IR-SnC REC). Put plainly: Viability of IR-SnC REC. The format is cell-based. Conditions: 72 hr incubation; vs ABT263. The procedure: as §3, §4
Data set [5] relates to replicative senescent REC (Rep-SnC REC). The data set can be described thus: Viability of Rep-SnC REC. Conditions: 72 hr incubation; vs ABT263. It counts as cell-based. The procedure:
as §3, §4

The test system of data set [6] is normal non-senescent REC (Non-SnC REC). Put plainly: Viability of Non-SnC REC. The format is cell-based. Conditions: 72 hr incubation; vs ABT263. The procedure:
as §3, §4

The nature of data set [7]: Myofibroblast cell activation and liver fibrosis in the STAM model. The format is in vivo, C57BL6 mice. Conditions: STZ/HFD mice, 5 mg/kg twice a week IP, postnatal day 150. The procedure: FIG. 9A depicts relative change in aSMA, Procollagen-1, Tgf-β, Ctgf, and Pdgf-β genes in livers of STZ/HFD mice treated with vehicle control or 753b. Data were means±SD of triplicate experiments. *p<0.05. […] Scale bar: […]. […] Actin was used as a loading control. FIG. 9D depicts hydroxyproline (μg/g) levels in the liver of STZ/HFD mice treated with vehicle control or 753b. *p<0.05.
Experimental design: C57BL6 mice were injected with Streptozotocin (STZ) at postnatal day 2 to induce diabetes and then fed with HFD from postnatal day 30 till the end of the experiments (FIG. 5). Half of the mice started receiving vehicle and the others receiving 753b (5 mg/kg) treatment on postnatal day 45 twice a week by IP injection till the end of the experiments. A group of the mice were euthanized at postnatal day 90 (or day 45 after the initiation of the treatment) for analysis of senescent cell accumulation and steatosis. Another group of the mice were euthanized at postnatal day 150 (or day 105 after the initiation of the treatment) for analysis of liver fibrosis and cancer.
753b administration inhibits myofibroblast cell activation and liver fibrosis in the STAM model. All the analyses were done in mice at postnatal day 150 (p150 or 105 days after treatment). […] Quantification was performed from 5 livers per group and was expressed as means±SD.

Data set [8] is described as follows: Tumorigenesis in the STAM model (MRI). Conditions: STZ/HFD mice; 5 mg/kg twice a week IP; postnatal day 150. The format is in vivo, C57BL6 mice. The procedure:
FIG. 10A depicts images of livers of STZ/HFD mice treated with vehicle control or 753b (top) and MRIs of T1 pre-contrast and T2-weighted images of corresponding livers (bottom). Tumor lesions are indicated by yellow arrows. […] FIG. 10C depicts a Western blot of Gpc3 in livers of STZ/HFD mice treated with vehicle control or 753b. Actin was used as a loading control.
Experimental design: C57BL6 mice were injected with Streptozotocin (STZ) at postnatal day 2 to induce diabetes and then fed with HFD from postnatal day 30 till the end of the experiments (FIG. 5). Half of the mice started receiving vehicle and the others receiving 753b (5 mg/kg) treatment on postnatal day 45 twice a week by IP injection till the end of the experiments. […]
All the analyses were done in mice at postnatal day 150 (p150 or 105 days after treatment). […] Tumor lesions were determined based on hypointense signals in T1 but hyperintense signals in T2-weighted image (FIG. 10A). Tumor number and volume was quantified based on MRI T1 and T2-weighted images. Values were expressed as means±SD from 5 mice per group. Data for each mouse were analyzed based on 5-6 slices of images that covered whole liver lobes (FIG. 10B). […] Quantification analysis was performed for the ratio between liver and body weight in the STZ/HFD treated livers that were exposed to 753b or control compound (FIG. 10D). […]

`Cc1ncsc1-c1ccc([C@H](C)NC(=O)[C@@H]2C[C@@H](O)CN2C(=O)[C@@H](NC(=O)CCCCCCC(=O)N2CCN(C[C@]3(C)CCC(c4ccc(Cl)cc4)=C(CN4CCN(c5ccc(C(=O)NS(=O)(=O)c6ccc(N[C@H](CCN7CCOCC7)CSc7ccccc7)c(S(=O)(=O)C(F)(F)F)c6)cc5)CC4)C3)CC2)C(C)(C)C)cc1` [Compound 753b]: the “Toxicity (viability) to Non-SnCs compared with ABT263” value in data set [1] is recorded as “less toxic”. Besides, the “Toxicity (viability) to human platelets compared with ABT263” value in data set [2] is “less toxic”. Further, the “Senolytic potency (viability) against IR-SnC HUVEC compared with ABT263” value in data set [3] is “more potent senolytic agent”. The “Senolytic potency (viability) against IR-SnC REC compared with ABT263” value in data set [4] is on record as “more potent senolytic agent”. The “Senolytic potency (viability) against Rep-SnC REC compared with ABT263” value in data set [5] is listed as “more potent senolytic agent”. The “Toxicity (viability) to Non-SnC REC compared with ABT263” value in data set [6] was “less toxic”. Further, in data set [7], the “Collagen level in livers (hepatic hydroxyproline assay)” value is recorded as “decreased levels of collagen”; the “Liver fibrosis (aSMA immunofluorescent staining and sirius red staining)” value was “prevented liver fibrosis”; the “aSMA and pro-collagen type I protein levels in livers (Western blotting)” value was “low levels of aSMA and pro-collagen type I proteins”. Besides, the “Levels of fibrosis-related genes in livers (Q-RT-PCR)” value in data set [7] (vs controls) is “lower levels of fibrosis-related genes”. Also, in data set [8], the “Tumorigenesis in the liver” value is given as “reduces tumorigenesis”.
